Results reported in patent US8647867B2, “Cell cultivation method and cell culture” (National University Corportion Okayama University, priority 2005, dated 2014).

Columns and labels:
porcine hepatocyte [1] = test: Metabolic ability of ammonia in cultured porcine hepatocyte; assay type: cell-based; parameters: ammonia metabolic rate: unit not given beside the values; conditions: for ammonia metabolic rate: ammonium sulfate 0.56 mM, after 24 hours
porcine pancreatic islet = test: Insulin production ability of cultured porcine pancreatic islet; assay type: cell-based
Description: A process of isolation of porcine pancreatic islet was carried out according to the method for isolation of human pancreatic islet (see, Lakey J R T, Kobayashi N, Shapiro A M J, Ricordi C, Okitsu T: Current human islet isolation protocol. Medical Review Co., Ltd., Osaka, Japan, 2004), and followed a method in a published literature (Yonekawa Y, Matsumono S, Okitsu T, Arata T, Iwanaga Y, Noguchi H, Nagata H, O'Neil J J, Tanaka K: Effective islet isolation method with extremely high islet yields from adult pigs. Cell Transplant. 14(10): 757-62, 2005). Those skilled in the art are capable of isolating pancreatic islet by referring to this literature.
Insulin production abilities of cultured porcine pancreatic islet were determined and compared between groups A and B. Using low glucose DMEM (glucose concentration: […]) (available from 25 GIBCO, Oakland, N.J.) supplemented with 10% FCS, nicotineamide 10 mM and penicillin G/streptomycin, cells were cultured for 24 hours until 60% confluency (low glucose). Then, the medium was changed for high glucose DMEM (glucose concentration: […]) (available from GIBCO, Oakland, N.J.) supplemented with 10% FCS, nicotineamide 10 mM and penicillin G/streptomycin, and cells were cultured for 6 hours (high glucose). After high glucose culture, the medium was exchanged for low glucose DMEM and cells were cultured for 6 hours (low glucose (after)). After each culture operation, the production amount of insulin in the culture medium (μg/l) was determined by an immunostaining method using a rabbit anti-human insulin antibody (available from DakoCytomation K. K., Kyoto, Japan).

porcine hepatocyte [2] = test: Viability of porcine hepatocyte (live/dead test); assay type: cell-based; conditions: culture without insert, days 1, 7 and 14 of culture
Text: Therefore, it was clarified that it is more suitable for culture of porcine hepatocyte to use PuraMatrix of SEQ ID NO:1 Since the appended Photographs are converted into white and black two tones, dyed colors are not expressed.

human hepatocyte = test: Morphological study of cultured human hepatocyte by phase-contrast and electron microscope; assay type: cell-based; conditions: culture without insert, phase-contrast microscope days 1 and 5, electron microscope day 5
Description: Donor liver judged to be unsuitable for transplantation in the United States was obtained from National Disease Research Interchange via HUMAN & ANIMAL BRIDGING […] ORGANIZATION laboratory (Ichikawa city, Chiba prefecture, responsible person) in the form of liver block (130 g) which was then separated into hepatocyte in the same manner as for the above-described isolation of porcine hepatocyte in Example 1.
Recently, it has been known that when three-dimensional culture of cells is performed on scaffold, cell functions are improved and maintained. […] In contrast, human hepatocytes cultured with collagen type I (monolayer) (group B) adhered in flat form to the surface of the culture flask (see, Photograph 1 in FIG. 7(a)). […] As a result, it was clarified that it is more suitable for culture of human hepatocyte to use PuraMatrix of SEQ ID NO:1.

porcine hepatocyte [3] = test: Metabolic ability of diazepam in cultured porcine hepatocyte
Description: Large white male pigs (body weight: 15 to 20 kg) were used. 1.5 ml of ketalar for intramuscular injection was injected to cause sedation and then, auricular vein was acquired and 5 mg/kg of isozol and 1 mg/kg of musculax were administered intravenously to obtain muscle relaxation. After endotracheal intubation, peritoneotomy was performed under general anesthesia with sevoflurene under controlled ventilation by an artificial respirator. A liver lateral region of the pig was surgically excised (about 80 g), perfusion was performed through excised cross-section portal vein and hepatic vein. First, the excised liver was perfused with a primary perfusion solution (sodium chloride 9 g/L, potassium chloride 0.42 g/L, sodium hydrogen carbonate 2.1 g/L, glucose 0.9 g/L, HEPES 4.78 g/L, ethylenediamine tetraacetic acid (EDTA) 0.37 g/L), subsequently, perfused with a secondary perfusion solution containing no EDTA (sodium chloride 9 g/L, potassium chloride 0.42 g/L, sodium hydrogen carbonate 2.1 g/L, glucose 0.9 g/L, HEPES 4.78 g/L). Thereafter, perfusion of the liver, kept at 39° C., was done with a dispase solution (sodium chloride 9 g/L, potassium chloride 0.42 g/L, sodium hydrogen carbonate 2.1 g/L, glucose 0.9 g/L, HEPES 4.78 g/L, dispase 8.4 g/L) (available from Godo Shusei K. K., Tokyo, Japan) and finally, with a collagenase solution (sodium chloride 9 g/L, potassium chloride 0.42 g/L, sodium hydrogen carbonate 2.1 g/L, glucose 0.9 g/L, HEPES 4.78 g/L, collagenase 0.5 g/L (available from Nitta Gelatin Inc., Osaka, Japan), calcium chloride monohydrate 0.55 g/L). […]
The metabolic abilities of diazepam in cultured porcine hepatocyte were measured and compared between groups A and B. Diazepam (1 pg/ml) was added to porcine hepatocyte media on days 1, 7 and 14 of culture, and the concentration of diazepam in the media after 24 hours was measured (entrusted to SRL K. K.), and the metabolic rate was calculated.

[4] = porcine hepatocyte, culture without insert, days 1, 7 and 14
[5] = culture without insert, days 1, 7 and 14

## CC(=O)N[C@@H](CCCNC(=N)N)C(=O)N[C@@H](C)C(=O)N[C@@H](CC(=O)O)C(=O)N[C@@H](C)C(=O)N[C@@H](CCCNC(=N)N)C(=O)N[C@@H](C)C(=O)N[C@@H](CC(=O)O)C(=O)N[C@@H](C)C(=O)N[C@@H](CCCNC(=N)N)C(=O)N[C@@H](C)C(=O)N[C@@H](CC(=O)O)C(=O)N[C@@H](C)C(=O)N[C@@H](CCCNC(=N)N)C(=O)N[C@@H](C)C(=O)N[C@@H](CC(=O)O)C(=O)N[C@@H](C)C(N)=O [Group A, Ac-(RADA)4-CONH2]
Porcine hepatocyte [1]; Table 1(a), culture without insert, day 1 of culture
  ammonia metabolic rate: 58.6
Porcine hepatocyte [1]; Table 1(a), culture without insert, day 7 of culture
  ammonia metabolic rate: 43.8
Porcine hepatocyte [1]; Table 1(a), culture without insert, day 14 of culture
  ammonia metabolic rate: 26.4
Porcine hepatocyte [1]; Table 1(c), culture with insert, day 1 of culture
  ammonia metabolic rate: 61.6
Porcine hepatocyte [1]; Table 1(c), culture with insert, day 7 of culture
  ammonia metabolic rate: 49.6
Porcine hepatocyte [1]; Table 1(c), culture with insert, day 14 of culture
  ammonia metabolic rate: 38.2
Porcine hepatocyte [1]; Table 1(c), culture with insert, day 21 of culture
  ammonia metabolic rate: 36.1
Porcine hepatocyte [1]; Table 1b, culture without insert, day 1 of culture
  ammonia metabolic rate: 59.8
Porcine hepatocyte [1]; Table 1b, culture without insert, day 7 of culture
  ammonia metabolic rate: 44.3
Porcine hepatocyte [1]; Table 1b, culture without insert, day 14 of culture
  ammonia metabolic rate: 33.3
Porcine hepatocyte [1]; porcine hepatocyte, culture with insert, days 1, 7, 14 and 21
  ammonia metabolic rate as compared with collagen type I (monolayer) (group B), Matrigel (group C) and collagen sandwich (group D): significantly better
Porcine hepatocyte [1]; [4]
  ammonia metabolic rate as compared with collagen type I (monolayer) (group B): significantly better
  ammonia metabolic rate as compared with collagen type I (monolayer) (group B) and Matrigel (group C): significantly better
Porcine pancreatic islet; porcine islets (10 seeded), day 0 of culture, low glucose (100 g/l, 24 hours)
  production amount of insulin in the culture medium: 0.80 µg/L
Porcine pancreatic islet; porcine islets, day 0 of culture, high glucose (450 g/l, 6 hours)
  production amount of insulin in the culture medium: 1.62 µg/L
Porcine pancreatic islet; porcine islets, day 0 of culture, low glucose (after), 6 hours
  production amount of insulin in the culture medium: 1.01 µg/L
Porcine pancreatic islet; porcine islets, day 3 of culture, high glucose (450 g/l, 6 hours)
  production amount of insulin in the culture medium: 1.48 µg/L
Porcine pancreatic islet; porcine islets, day 3 of culture, low glucose (100 g/l, 24 hours)
  production amount of insulin in the culture medium: 0.80 µg/L
Porcine pancreatic islet; porcine islets, day 3 of culture, low glucose (after), 6 hours
  production amount of insulin in the culture medium: 0.90 µg/L
Porcine pancreatic islet; porcine islets, day 5 of culture, high glucose (450 g/l, 6 hours)
  production amount of insulin in the culture medium: 1.24 µg/L
Porcine pancreatic islet; porcine islets, day 5 of culture, low glucose (100 g/l, 24 hours)
  production amount of insulin in the culture medium: 0.69 µg/L
Porcine pancreatic islet; porcine islets, day 5 of culture, low glucose (after), 6 hours
  production amount of insulin in the culture medium: 0.78 µg/L
Porcine pancreatic islet; porcine islets, day 7 of culture, high glucose (450 g/l, 6 hours)
  production amount of insulin in the culture medium: 0.90 µg/L
Porcine pancreatic islet; porcine islets, day 7 of culture, low glucose (100 g/l, 24 hours)
  production amount of insulin in the culture medium: 0.49 µg/L
Porcine pancreatic islet; porcine islets, day 7 of culture, low glucose (after), 6 hours
  production amount of insulin in the culture medium: 0.71 µg/L
Porcine pancreatic islet; porcine pancreatic islet, day 5 of culture
  amount of insulin secreted in high glucose concentration (response to glucose concentration): increased
Porcine hepatocyte [2]
  viability of porcine hepatocytes (live cells green, dead cells red): most cells exhibited a green color
Human hepatocyte
  formation of three-dimensional spheroid by hepatocytes: formation of three-dimensional spheroid by hepatocytes was confirmed
Porcine hepatocyte [3]; culture with insert, days 1, 7, 14 and 21
  diazepam metabolic rate as compared with collagen type I (monolayer) (group B), Matrigel (group C) and collagen sandwich (group D): significantly better
Porcine hepatocyte [3]; [5]
  diazepam metabolic rate as compared with collagen type I (monolayer) (group B): significantly better
  diazepam metabolic rate as compared with collagen type I (monolayer) (group B) and Matrigel (group C): significantly better
